# Calls of active or inactive are those of the source.
# Tests used:
# [1] = molecular target: T1, Microphthalmia-associated transcription factor (Homo sapiens, UniProt O75030); experiment: TRPM1 promoter luciferase signal decrease, dose response, MITF inhibitor project, cell-based, SK-MEL-5, cherry-picked, set 3 (AID 493073); assay type: functional
# T1 sequence (O75030 whole entry): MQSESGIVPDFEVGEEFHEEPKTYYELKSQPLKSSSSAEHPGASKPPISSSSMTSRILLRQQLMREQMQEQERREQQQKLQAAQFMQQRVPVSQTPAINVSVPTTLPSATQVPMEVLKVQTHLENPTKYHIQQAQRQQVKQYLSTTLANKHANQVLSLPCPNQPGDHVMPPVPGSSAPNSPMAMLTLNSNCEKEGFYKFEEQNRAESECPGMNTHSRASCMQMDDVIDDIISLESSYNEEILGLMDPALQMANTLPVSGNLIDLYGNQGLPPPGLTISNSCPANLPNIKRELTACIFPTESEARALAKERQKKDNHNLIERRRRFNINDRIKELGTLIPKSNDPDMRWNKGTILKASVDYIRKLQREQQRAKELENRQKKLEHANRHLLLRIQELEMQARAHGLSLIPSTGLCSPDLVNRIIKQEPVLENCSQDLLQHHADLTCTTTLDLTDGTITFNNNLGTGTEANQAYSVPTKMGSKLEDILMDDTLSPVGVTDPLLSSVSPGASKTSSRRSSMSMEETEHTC
# [2] = molecular target: Heat shock protein HSP 90-alpha (Homo sapiens, UniProt P07900); assay type: functional, organism-based
# [3] = molecular target: T2, V-type proton ATPase subunit c' (Saccharomyces cerevisiae S288c, UniProt P32842); experiment: Dose Response of Small Molecules that Regulate V-ATPase Proton Transport in Yeast using pHLuorin, Cherry Pick 2.; assay type: functional; details: read-out: EC50_MICROM
# T2 sequence (P32842 whole entry): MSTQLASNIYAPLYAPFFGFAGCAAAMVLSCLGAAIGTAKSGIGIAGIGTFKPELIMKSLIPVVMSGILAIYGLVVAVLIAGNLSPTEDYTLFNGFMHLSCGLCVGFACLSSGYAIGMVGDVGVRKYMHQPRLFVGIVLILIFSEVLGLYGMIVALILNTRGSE
# [4] = molecular target: T2, V-type proton ATPase subunit c'; experiment: Dose Response of Small Molecules that Regulate V-ATPase Proton Transport in Yeast using pHLuorin, Powder Set1.; assay type: functional; details: read-out: EC50_MICROM
# [5] = microbe, parasite or virus in culture; assay type: functional; details: Mycobacterium tuberculosis
# CHO-K1 = experiment: (§1) Counterscreen for antagonists of the orexin 1 receptor (OX1R; HCRTR1): Homogeneous time resolved fluorescence (HTRF)-based cell-based dose response assay to identify antagonists of the parental CHO-K1 cell line. [Related pubchem assays (depositor defined):AID434989, AID435008, AID463079, AID485270, AID492963, AID492964, AID492965, AID493232, AID504699, AID504701]; assay type: functional; details: Cricetulus griseus
# [6] = as §1, with “Fluorescence-based” for “Homogeneous time resolved fluorescence (HTRF)-based”, “cell-based high throughput” for “cell-based”, “CHO” for “CHO-K1”; assay type: functional
# [7] = molecular target: T3, Orexin/Hypocretin receptor type 1 (Homo sapiens, UniProt O43613); experiment: Homogeneous Time Resolved Fluorescence (HTRF)-based cell-based high throughput dose response assay for antagonists of the orexin 1 receptor (OX1R; HCRTR1). [Related pubchem assays (depositor defined):AID434989, AID435008, AID463079, AID485270, AID492963, AID492964, AID492965, AID493232, AID504717, AID504718]; assay type: functional
# T3 sequence (O43613 whole entry): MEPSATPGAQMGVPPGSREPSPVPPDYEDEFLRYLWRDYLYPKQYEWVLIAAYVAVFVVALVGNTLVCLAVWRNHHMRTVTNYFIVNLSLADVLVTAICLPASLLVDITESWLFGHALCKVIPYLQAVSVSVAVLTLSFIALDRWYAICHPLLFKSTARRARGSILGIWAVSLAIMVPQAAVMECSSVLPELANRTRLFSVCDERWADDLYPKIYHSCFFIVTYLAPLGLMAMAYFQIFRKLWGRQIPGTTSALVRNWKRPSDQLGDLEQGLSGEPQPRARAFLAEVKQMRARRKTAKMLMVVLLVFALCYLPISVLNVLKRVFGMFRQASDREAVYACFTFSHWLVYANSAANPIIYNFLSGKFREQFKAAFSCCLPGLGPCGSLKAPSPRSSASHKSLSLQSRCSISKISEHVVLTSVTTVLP
# [8] = molecular target: T3, Orexin/Hypocretin receptor type 1; experiment: Fluorescence-based cell-based high throughput dose response assay for antagonists of the orexin 1 receptor (OX1R; HCRTR1). [Related pubchem assays (depositor defined):AID434989, AID435008, AID463079, AID485270, AID492963, AID492964, AID492965, AID493232, AID504717, AID504718]; assay type: functional
# Orexin receptor type 2 [9] = molecular target: T4, Orexin receptor type 2 (Homo sapiens, UniProt O43614); experiment: Counterscreen assay for antagonists of the orexin 1 receptor (OX1R; HCRTR1): Fluorescence-based cell-based dose response assay for antagonists of the orexin 2 receptor (OX2R; HCRTR2), run by assay provider.; assay type: functional
# T4 sequence (O43614 whole entry): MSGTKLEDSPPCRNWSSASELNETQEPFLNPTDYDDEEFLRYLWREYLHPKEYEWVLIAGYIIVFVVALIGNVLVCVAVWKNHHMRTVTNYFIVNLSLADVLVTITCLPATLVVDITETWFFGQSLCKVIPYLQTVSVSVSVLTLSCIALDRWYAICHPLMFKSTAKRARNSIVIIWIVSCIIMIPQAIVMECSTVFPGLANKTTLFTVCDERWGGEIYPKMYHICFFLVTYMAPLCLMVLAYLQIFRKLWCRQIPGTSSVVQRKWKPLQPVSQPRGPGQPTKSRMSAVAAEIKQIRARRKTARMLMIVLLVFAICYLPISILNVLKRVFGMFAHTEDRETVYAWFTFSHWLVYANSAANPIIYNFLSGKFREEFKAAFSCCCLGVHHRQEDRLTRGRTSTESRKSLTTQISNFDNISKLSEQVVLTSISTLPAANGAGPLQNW
# Orexin receptor type 2 [10] = molecular target: T4, Orexin receptor type 2; experiment: Counterscreen assay for antagonists of the orexin 1 receptor (OX1R; HCRTR1): Homogeneous Time Resolved Fluorescence (HTRF)-based cell-based dose response assay for antagonists of the orexin 2 receptor (OX2R; HCRTR2), run by assay provider.; assay type: functional
# [11] = molecular target: Megakaryocyte-associated tyrosine-protein kinase (Homo sapiens, UniProt P42679); assay type: functional;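 note: affinity measured as one member of a kinase panel (Navigating the Kinome) against MATK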
# [12] = molecular target: Eukaryotic elongation factor 2 kinase (Homo sapiens, UniProt O00418); assay type: functional
# Eukaryotic elongation factor 2 kinase, sequence (O00418 whole entry): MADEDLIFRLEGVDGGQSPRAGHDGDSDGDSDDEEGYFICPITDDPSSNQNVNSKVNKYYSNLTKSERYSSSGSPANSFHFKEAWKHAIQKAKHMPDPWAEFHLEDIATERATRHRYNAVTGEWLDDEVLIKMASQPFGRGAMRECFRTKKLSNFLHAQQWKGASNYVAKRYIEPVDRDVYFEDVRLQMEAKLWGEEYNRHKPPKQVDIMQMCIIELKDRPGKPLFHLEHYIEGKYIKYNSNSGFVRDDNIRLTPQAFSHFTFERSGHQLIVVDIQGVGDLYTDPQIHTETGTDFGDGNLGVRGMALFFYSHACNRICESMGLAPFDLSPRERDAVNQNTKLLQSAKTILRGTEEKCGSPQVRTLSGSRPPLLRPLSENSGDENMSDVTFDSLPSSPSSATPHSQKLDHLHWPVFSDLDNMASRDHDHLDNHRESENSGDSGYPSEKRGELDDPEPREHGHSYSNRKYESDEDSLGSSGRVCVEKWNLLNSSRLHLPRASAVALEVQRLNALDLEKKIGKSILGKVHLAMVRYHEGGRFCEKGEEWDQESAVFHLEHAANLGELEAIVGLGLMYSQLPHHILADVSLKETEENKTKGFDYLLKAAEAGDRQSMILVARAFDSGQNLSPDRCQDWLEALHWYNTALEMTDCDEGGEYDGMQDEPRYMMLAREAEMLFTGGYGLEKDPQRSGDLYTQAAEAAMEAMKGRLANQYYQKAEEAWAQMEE
# [13] = molecular target: Serine/threonine-protein kinase Chk2 (Homo sapiens, UniProt O96017); assay type: functional;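 note: CHEK2 entry within a kinome-wide screening panel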
# [14] = molecular target: Homeodomain-interacting protein kinase 2 (Homo sapiens, UniProt Q9H2X6); assay type: functional;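 note: measured within a kinome-wide kinase profiling panel, HIPK2 being one panel member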
# Homeodomain-interacting protein kinase 2, sequence (Q9H2X6 whole entry): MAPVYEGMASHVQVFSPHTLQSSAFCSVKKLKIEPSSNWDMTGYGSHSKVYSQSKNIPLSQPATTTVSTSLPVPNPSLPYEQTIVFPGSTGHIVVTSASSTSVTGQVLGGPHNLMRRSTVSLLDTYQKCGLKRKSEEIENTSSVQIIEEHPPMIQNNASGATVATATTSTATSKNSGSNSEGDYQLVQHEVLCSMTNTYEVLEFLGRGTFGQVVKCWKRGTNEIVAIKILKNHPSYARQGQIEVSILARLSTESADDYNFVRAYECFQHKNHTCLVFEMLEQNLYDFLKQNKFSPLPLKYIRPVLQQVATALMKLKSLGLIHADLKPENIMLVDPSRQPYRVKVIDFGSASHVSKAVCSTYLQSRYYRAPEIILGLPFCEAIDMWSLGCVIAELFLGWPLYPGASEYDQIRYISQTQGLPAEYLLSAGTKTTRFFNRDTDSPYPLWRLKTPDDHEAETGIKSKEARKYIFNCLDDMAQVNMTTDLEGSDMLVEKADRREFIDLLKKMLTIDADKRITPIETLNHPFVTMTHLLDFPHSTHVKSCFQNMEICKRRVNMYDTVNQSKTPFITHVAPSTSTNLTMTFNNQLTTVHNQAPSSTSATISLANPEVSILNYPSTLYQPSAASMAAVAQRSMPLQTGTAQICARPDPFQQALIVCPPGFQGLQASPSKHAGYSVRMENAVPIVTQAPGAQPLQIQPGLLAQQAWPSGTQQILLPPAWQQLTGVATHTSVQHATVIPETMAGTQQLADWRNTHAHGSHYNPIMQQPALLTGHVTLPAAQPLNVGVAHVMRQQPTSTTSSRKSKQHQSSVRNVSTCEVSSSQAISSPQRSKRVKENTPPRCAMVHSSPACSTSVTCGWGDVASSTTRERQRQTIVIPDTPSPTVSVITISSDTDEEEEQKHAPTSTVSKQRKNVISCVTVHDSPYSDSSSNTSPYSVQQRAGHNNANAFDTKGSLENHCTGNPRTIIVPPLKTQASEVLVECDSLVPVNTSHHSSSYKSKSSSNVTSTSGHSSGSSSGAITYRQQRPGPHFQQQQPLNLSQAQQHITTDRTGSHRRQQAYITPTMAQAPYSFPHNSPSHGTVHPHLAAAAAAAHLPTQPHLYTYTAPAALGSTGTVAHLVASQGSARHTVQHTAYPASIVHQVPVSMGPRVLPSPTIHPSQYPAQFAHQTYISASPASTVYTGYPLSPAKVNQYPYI
# [15] = molecular target: Mitogen-activated protein kinase 13 (Homo sapiens, UniProt O15264); assay type: functional
# Mitogen-activated protein kinase 13, sequence (O15264 whole entry): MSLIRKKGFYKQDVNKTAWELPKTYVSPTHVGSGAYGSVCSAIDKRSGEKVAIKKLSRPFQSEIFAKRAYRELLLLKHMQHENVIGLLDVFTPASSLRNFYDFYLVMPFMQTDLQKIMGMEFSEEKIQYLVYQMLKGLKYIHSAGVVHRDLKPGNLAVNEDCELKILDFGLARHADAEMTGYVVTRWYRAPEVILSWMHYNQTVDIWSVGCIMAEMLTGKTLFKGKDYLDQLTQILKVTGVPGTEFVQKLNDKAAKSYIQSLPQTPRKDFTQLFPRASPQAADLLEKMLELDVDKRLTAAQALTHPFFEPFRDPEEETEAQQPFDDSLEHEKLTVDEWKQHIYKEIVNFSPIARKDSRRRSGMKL
# [16] = molecular target: Protein kinase C gamma type (Homo sapiens, UniProt P05129); assay type: functional
# [17] = molecular target: Inhibitor of nuclear factor kappa-B kinase subunit alpha (Homo sapiens, UniProt O15111); assay type: functional
# [18] = molecular target: MAP kinase-activated protein kinase 3 (Homo sapiens, UniProt Q16644); assay type: functional;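 note: value comes from a kinome-wide profiling panel in which MAPKAPK3 is one of the panel members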
# Misshapen-like kinase 1 = Misshapen-like kinase 1 (Homo sapiens, UniProt Q8N4C8); assay type: functional;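 note: kinome panel screen with MINK as the panel member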
# [19] = molecular target: Serine/threonine-protein kinase Nek4 (Homo sapiens, UniProt P51957); assay type: functional
# [20] = molecular target: Dual specificity tyrosine-phosphorylation-regulated kinase 4 (Homo sapiens, UniProt Q9NR20); assay type: functional
# [21] = molecular target: Homeodomain-interacting protein kinase 4 (Homo sapiens, UniProt Q8NE63); assay type: functional
# [22] = molecular target: Inhibitor of nuclear factor kappa-B kinase subunit beta (Homo sapiens, UniProt O14920); assay type: functional
# [23] = molecular target: Serine/threonine-protein kinase pim-1 (Homo sapiens, UniProt P11309); assay type: functional
# [24] = molecular target: Cell division cycle 7-related protein kinase (Homo sapiens, UniProt O00311); assay type: functional;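 note: value obtained from a kinome-wide kinase panel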
# [25] = molecular target: MAP kinase-interacting serine/threonine-protein kinase 2 (Homo sapiens, UniProt Q9HBH9); assay type: functional
# [26] = molecular target: Interleukin-1 receptor-associated kinase 4 (Homo sapiens, UniProt Q9NWZ3); assay type: functional
# [27] = molecular target: Glycogen synthase kinase-3 beta (Homo sapiens, UniProt P49841); assay type: functional;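 note: value comes from a broad kinome profiling panel, with GSK3B as the panel member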
# [28] = molecular target: cAMP-dependent protein kinase catalytic subunit alpha (Homo sapiens, UniProt P17612); assay type: functional
# [29] = molecular target: Dual specificity protein kinase CLK4 (Homo sapiens, UniProt Q9HAZ1); assay type: functional
# [30] = molecular target: Mitogen-activated protein kinase kinase kinase kinase 4 (Homo sapiens, UniProt O95819); assay type: functional
# Mitogen-activated protein kinase kinase kinase kinase 4, sequence (O95819 whole entry): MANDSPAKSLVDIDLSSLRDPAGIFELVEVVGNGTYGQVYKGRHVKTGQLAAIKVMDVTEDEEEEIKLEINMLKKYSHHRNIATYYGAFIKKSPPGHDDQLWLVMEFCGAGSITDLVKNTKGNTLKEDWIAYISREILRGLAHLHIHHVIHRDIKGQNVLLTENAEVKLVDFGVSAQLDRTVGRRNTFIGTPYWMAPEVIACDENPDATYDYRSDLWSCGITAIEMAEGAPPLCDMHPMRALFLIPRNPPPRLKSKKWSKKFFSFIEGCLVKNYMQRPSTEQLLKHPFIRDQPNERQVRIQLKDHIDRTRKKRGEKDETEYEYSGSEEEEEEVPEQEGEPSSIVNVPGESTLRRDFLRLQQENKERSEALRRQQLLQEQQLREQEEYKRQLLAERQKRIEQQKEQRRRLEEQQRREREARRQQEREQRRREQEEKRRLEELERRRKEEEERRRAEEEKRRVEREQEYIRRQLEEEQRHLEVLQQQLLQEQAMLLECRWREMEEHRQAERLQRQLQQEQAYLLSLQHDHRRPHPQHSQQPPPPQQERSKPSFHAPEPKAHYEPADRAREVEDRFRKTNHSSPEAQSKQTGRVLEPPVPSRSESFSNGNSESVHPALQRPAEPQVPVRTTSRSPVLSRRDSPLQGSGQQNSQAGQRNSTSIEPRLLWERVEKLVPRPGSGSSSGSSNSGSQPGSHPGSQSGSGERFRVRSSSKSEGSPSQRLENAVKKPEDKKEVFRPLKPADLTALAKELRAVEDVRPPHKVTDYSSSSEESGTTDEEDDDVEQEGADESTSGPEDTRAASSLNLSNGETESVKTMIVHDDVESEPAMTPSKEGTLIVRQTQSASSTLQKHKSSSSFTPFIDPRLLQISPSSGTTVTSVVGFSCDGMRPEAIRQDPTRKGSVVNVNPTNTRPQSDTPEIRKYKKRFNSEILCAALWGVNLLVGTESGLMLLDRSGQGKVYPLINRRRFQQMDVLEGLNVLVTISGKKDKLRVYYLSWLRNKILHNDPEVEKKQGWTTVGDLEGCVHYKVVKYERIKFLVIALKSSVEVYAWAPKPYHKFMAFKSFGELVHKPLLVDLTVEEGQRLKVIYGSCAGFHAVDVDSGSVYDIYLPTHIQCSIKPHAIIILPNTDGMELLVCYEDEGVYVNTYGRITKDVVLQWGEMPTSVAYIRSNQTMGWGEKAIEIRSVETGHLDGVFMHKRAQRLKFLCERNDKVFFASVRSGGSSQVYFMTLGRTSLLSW
structure (smiles),measurement,setting,value
O=C(Nc1ccccc1N1CCOCC1)c1ccc([N+](=O)[O-])o1,AC50,[1],11.9 µM (active)
same,AC50,[2],3.63 µM (active)
same,EC50,[3],25.3 µM (active)
same,EC50,[4],4.18 µM (active)
OCC1(Cc2cccc(Cl)c2)CCCN(Cc2ccc3cc(F)ccc3n2)C1 (stereo not drawn),CC50,[5],> 40 µM (active)
same,IC50,CHO-K1,> 66.2 µM (inactive)
same,IC50,[6],31.4 µM (inactive)
same,IC50,[7],6.33 µM (active)
same,IC50,[8],> 5.53 µM (active)
same,IC50,Orexin receptor type 2 [9],6.7 µM (active)
same,IC50,Orexin receptor type 2 [10],25.1 µM (inactive)
CCC(CO)Nc1nc(NCc2ccccc2)c2ncn(C(C)C)c2n1 (stereo not drawn) [(RS)-ROSCOVITINE],Ki,[11],> 2 µM (inactive)
same,Ki,[12],> 3.98 µM (inactive)
same,Ki,[13],> 5.01 µM (inactive)
same,Ki,[14],> 3.16 µM (inactive)
same,Ki,[15],> 7.94 µM (inactive)
same,Ki,[16],> 7.94 µM (inactive)
same,Ki,[17],> 3.98 µM (inactive)
same,Ki,[18],> 10 µM (inactive)
same,Ki,Misshapen-like kinase 1,> 7.94 µM (inactive)
same,Ki,[19],> 6.31 µM (inactive)
same,Ki,[20],> 7.94 µM (inactive)
same,Ki,[21],1.58 µM (active)
same,Ki,[22],> 3.16 µM (inactive)
c1ccc(Cn2cc(-c3ccc4[nH]nc(-c5ccccc5)c4c3)nn2)cc1,Ki,[23],0.251 µM (active)
same,Ki,[24],0.00794 µM (active)
same,Ki,[14],0.0316 µM (active)
same,Ki,[25],0.2 µM (active)
same,Ki,[26],0.631 µM (active)
same,Ki,[27],0.02 µM (active)
same,Ki,[28],3.98 µM (active)
same,Ki,[29],0.00398 µM (active)
same,Ki,[30],0.0398 µM (active)
